Measured values published in PMC2270815, “Inhibition of 11βHSD1 with the S-phenylethylaminothiazolone BVT116429 increases adiponectin concentrations and improves glucose homeostasis in diabetic KKA^y mice” (BMC Pharmacology, 2008).

Columns and labels:
[1] = target: T1, 11β HSD1 (11β-hydroxysteroid dehydrogenase type 1) (Homo sapiens, UniProt P28845); test: in vitro enzyme inhibition assay with purified recombinant enzyme; format: biochemical
T1 construct: gene HSD11B1; purified recombinant human 11β HSD1

[2] = target: T2, 11β HSD1 (11β-hydroxysteroid dehydrogenase type 1) (Mus musculus, UniProt P50172); test: as above; format: biochemical
T2 construct: gene Hsd11b1; purified recombinant mouse 11β HSD1
T2 sequence (P50172 whole entry): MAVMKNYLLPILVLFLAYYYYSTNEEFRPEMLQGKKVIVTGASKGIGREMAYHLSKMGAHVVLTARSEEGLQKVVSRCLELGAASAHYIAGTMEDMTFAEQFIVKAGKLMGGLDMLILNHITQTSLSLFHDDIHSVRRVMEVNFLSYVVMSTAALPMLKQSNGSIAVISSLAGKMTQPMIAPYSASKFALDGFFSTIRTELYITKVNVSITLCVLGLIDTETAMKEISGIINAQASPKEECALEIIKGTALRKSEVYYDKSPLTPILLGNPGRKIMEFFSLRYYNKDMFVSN

T1 sequence (P28845 whole entry): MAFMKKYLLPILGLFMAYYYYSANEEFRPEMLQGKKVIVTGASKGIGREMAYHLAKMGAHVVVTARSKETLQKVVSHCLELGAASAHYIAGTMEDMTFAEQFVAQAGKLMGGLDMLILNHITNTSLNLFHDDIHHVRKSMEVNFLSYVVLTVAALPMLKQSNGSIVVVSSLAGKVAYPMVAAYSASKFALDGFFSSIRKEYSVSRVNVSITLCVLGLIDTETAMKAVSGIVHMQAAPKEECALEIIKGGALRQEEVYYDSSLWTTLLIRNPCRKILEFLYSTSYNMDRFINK

- Ki [1]: 29 nM
- Ki [2]: 36 nM
SMILES: C[C@H](NC1=NC(=O)[C@@](C)(C(F)(F)F)S1)c1ccccc1F [BVT116429, (S)-2-((S)-1-(2-fluorophenyl)ethylamino)-5-methyl-5-(trifluoromethyl)thiazol-4(5H)-one]
